How the values were obtained:
[1] = tested on: scopolamine treated mice; assay: object recognition task in scopolamine-treated mice; type: in vivo
Excerpt: FIG. 2 illustrates the results of the effect of a co-treatment with 2-(cyclohexylmethyl)-N-{2-[(2S)-1-methylpyrrolidin-2-yl]ethyl}-1,2,3,4-tetrahydroisoquinoline-7-sulfonamide and donepezil on recognition memory deficit in scopolamine-treated mice using the object recognition task.
The results of this study are depicted in FIG. 2.

[2] = tested on: CD1 male mice; assay: object recognition test in normal mice; type: in vivo
Excerpt: FIG. 1 illustrates the results of the effect of a co-treatment with 2-(cyclohexyl methyl)-N-{2-[(2S)-1-methyl pyrrolidin-2-yl]ethyl}-1,2,3,4-tetrahydroisoquinoline-7-sulfonamide and donepezil on recognition memory in normal mice at various delays using the object recognition task.
The results of this study are depicted in FIG. 1.

[3] = tested on: patients with mild to moderate Alzheimer's disease; assay: clinical study, CDR-S computerized assessment; type: in vivo, human
Description: “CDR-S” as used herein, refers to the Cognitive Drug Research computerized assessment system which tests various aspects of human cognitive function, memory, and attention.
(§1) A randomized, double-blind, parallel-group, placebo-controlled clinical trial was performed to study the effect on cognitive performance, safety, and tolerability of 2-(cyclohexylmethyl)-N-{2-[(2S)-1-methylpyrrolidin-2-yl]ethyl}-1,2,3,4-tetrahydroisoquinoline-7-sulfonamide difumarate monohydrate as adjunct treatment to donepezil.
(§2) More specifically, patients with mild to moderate Alzheimer's disease on stable donepezil therapy were randomized to receive doses of 0.5 mg, 2 mg, or 5 mg/day of 2-(cyclohexylmethyl)-N-{2-[(2S)-1-methylpyrrolidin-2-yl]ethyl}-1,2,3,4-tetrahydroisoquinoline-7-sulfonamide difumarate monohydrate or placebo for 24 weeks, with a 10 week follow-up period.
(§3) Patients were randomized to receive 0.5 mg, 2 mg, or 5 mg of 2-(cyclohexylmethyl)-N-{2-[(2S)-1-methylpyrrolidin-2-yl]ethyl}-1,2,3,4-tetrahydroisoquinoline-7-sulfonamide difumarate monohydrate (measured in base form), or matching placebo once a day, with donepezil (5 mg or 10 mg in the form the patient took prior to enrollment), for 24 weeks, with or without food.
Change from baseline to Week 24 in the five factors from the Cognitive Drug Research computerized assessment system (CDR-S): power of attention, continuity of attention, quality of working memory, cognitive reaction time, and speed of memory;
Change from baseline to Week 8 and 24 in the Cognitive Drug Research computerized assessment system (CDR-S) episodic memory;

[4] = tested on: patients with mild to moderate Alzheimer's disease; assay: clinical study, treatment emergent adverse events (TEAE); type: in vivo, human; conditions: for Patients with an TEAE / Patients with any treatment emergent serious adverse event / TEAE: Anxiety / TEAE: Cardiac disorders / TEAE: Depressive disorders / TEAE: Dermatitis / TEAE: Diarrhea / TEAE: Dyspepsia / TEAE: Gastrointestinal disorders / TEAE: Hiatus hernia / TEAE: Infections and infestations / TEAE: Muscle spasm / TEAE: Musculoskeletal and connective tissue disorders / TEAE: Other (Falls) / TEAE: Psychiatric disorders / TEAE: Rashes / TEAE: Skin and subcutaneous tissue disorders / TEAE: Sleep disorders and Disturbance / TEAE: Vascular disorders: with donepezil
Description: as §1, §2, §3

## CN1CCC[C@H]1CCNS(=O)(=O)c1ccc2c(c1)CN(CC1CCCCC1)CC2 [API, 2-(cyclohexylmethyl)-N-{2-[(2S)-1-methylpyrrolidin-2-yl]ethyl}-1,2,3,4-tetrahydroisoquinoline-7-sulfonamide difumarate monohydrate]
[1]; 0.3 mg/kg alone
  activity of the amount given alone, episodic memory deficits: inactive
[1]; 0.3 mg/kg with donepezil hydrochloride 1 mg/kg
  episodic memory deficits, co-treatment: reversed episodic memory deficits
[2]; 3 mg/kg co-administered with 3 mg/kg donepezil hydrochloride, 48 hours post administration
  procognitive effect of co-administration in object recognition test: significant procognitive effect
[2]; 3 mg/kg oral, individually, 24 hours after administration
  memory in object recognition test: enhanced the memory
[2]; 3 mg/kg oral, individually, after 48 hours
  procognitive effect in object recognition test: lack of procognitive effect
[3]; 5 mg/day with donepezil, at 24 weeks
  episodic memory difference vs placebo: no longer significant
[3]; 0.5 and 5 mg group at week 24
  power of attention vs placebo, tendency: Tendencies for improvement versus placebo
[3]; all dose groups, week 8 or week 24, mITT
  power of attention change from baseline vs placebo: no significant difference
[3]; week 24, with donepezil
  CDR-S measure of working memory: not significantly modified
  CDR-S other measures of attention/speed of response: not significantly modified
[4]; 0.5 mg (N = 72)
  Patients with an TEAE: 53 (73.6%)
  Patients with any treatment emergent serious adverse event: 10 (13.9%)
  TEAE: Anxiety: 3 (4.2%)
  TEAE: Cardiac disorders: 5 (6.9%)
  TEAE: Depressive disorders: 1 (1.4%)
  TEAE: Dermatitis: 1 (1.4%)
  TEAE: Diarrhea: 7 (9.7%)
  TEAE: Dyspepsia: 1 (1.4%)
  TEAE: Gastrointestinal disorders: 11 (15.3%)
  TEAE: Hiatus hernia: 0%
  TEAE: Infections and infestations: 20 (27.8%)
  TEAE: Muscle spasm: 1 (1.4%)
  TEAE: Musculoskeletal and connective tissue disorders: 5 (6.9%)
  TEAE: Other (Falls): 9 (12.5%)
  TEAE: Psychiatric disorders: 21 (29.2%)
  TEAE: Rashes: 1 (1.4%)
  TEAE: Skin and subcutaneous tissue disorders: 7 (9.7%)
  TEAE: Sleep disorders and Disturbance: 12 (16.7%)
  TEAE: Vascular disorders: 2 (2.8%)
[4]; 2 mg (N = 72)
  Patients with an TEAE: 54 (76.1%)
  Patients with any treatment emergent serious adverse event: 10 (14.1%)
  TEAE: Anxiety: 4 (5.6%)
  TEAE: Cardiac disorders: 3 (4.2%)
  TEAE: Depressive disorders: 2 (2.8%)
  TEAE: Dermatitis: 3 (4.2%)
  TEAE: Diarrhea: 7 (9.9%)
  TEAE: Dyspepsia: 1 (1.4%)
  TEAE: Gastrointestinal disorders: 18 (25.4%)
  TEAE: Hiatus hernia: 0%
  TEAE: Infections and infestations: 11 (15.5%)
  TEAE: Muscle spasm: 2 (2.8%)
  TEAE: Musculoskeletal and connective tissue disorders: 12 (16.9%)
  TEAE: Other (Falls): 7 (9.9%)
  TEAE: Psychiatric disorders: 18 (25.4%)
  TEAE: Rashes: 4 (5.6%)
  TEAE: Skin and subcutaneous tissue disorders: 15 (21.1%)
  TEAE: Sleep disorders and Disturbance: 11 (15.5%)
  TEAE: Vascular disorders: 3 (4.3%)
[4]; 5 mg (N = 69)
  Patients with an TEAE: 59 (85.5%)
  Patients with any treatment emergent serious adverse event: 8 (11.6%)
  TEAE: Anxiety: 4 (5.8%)
  TEAE: Cardiac disorders: 5 (7.2%)
  TEAE: Depressive disorders: 5 (7.2%)
  TEAE: Dermatitis: 3 (4.3%)
  TEAE: Diarrhea: 4 (5.8%)
  TEAE: Dyspepsia: 3 (4.3%)
  TEAE: Gastrointestinal disorders: 17 (24.6%)
  TEAE: Hiatus hernia: 3 (4.3%)
  TEAE: Infections and infestations: 16 (23.2%)
  TEAE: Muscle spasm: 7 (10.6%)
  TEAE: Musculoskeletal and connective tissue disorders: 16 (23.2%)
  TEAE: Other (Falls): 7 (10.1%)
  TEAE: Psychiatric disorders: 27 (39.1%)
  TEAE: Rashes: 1 (1.4%)
  TEAE: Skin and subcutaneous tissue disorders: 5 (7.2%)
  TEAE: Sleep disorders and Disturbance: 21 (30.4%)
  TEAE: Vascular disorders: 3 (4.3%)
[4]; 5 mg group
  sleep disorders and disturbances, incidence among groups: highest incidence
[4]; 0.5, 2, 5 mg/day with donepezil, 24 weeks
  safety and tolerability: safe and well tolerated
[4]; all treated groups
  vascular disorders, incidence over placebo: low incidence
